Measured values published in US20050228046A1, “Alkylamine as an antimicrobial agent in ophthalmic compositions” (ADVANCED MEDICAL OPTICS, INC., priority 2004, published 2005).

Columns and labels:
[1] = test system: Serratia marcescens, ATCC 13880; experiment: Microbiology challenge test, log drop; assay type: cell-based
Description: (§1) The following is the procedure by which various antimicrobial agents and solutions are tested for their ability to reduce microbial loads over short periods of time, typically 24 hours and less. The procedure is a basic microbiology challenge test, which involves the inoculation of test product aliquots with a known number of viable cells of several test organisms, and assay for the survivors at various time intervals. The results are used to calculate log drops at soak times and construct kill-curves (graphs of survivors versus time) if desired.
(§2) Candida albicans, ATCC 10231, is one of five organisms specified per FDA and ISO/CLI tests for the testing of contact lens disinfectants (FDA Premarket Notification (510k) Guidance Document for Contact Lens Care Products, Appendix B, Apr. 1, 1997 and ISO/FDIS 14729: Ophthalmic optics-Contact lens care products-Microbiological requirements and test methods for products and regimens for hygienic management of contact lenses, January 2001). Contact lens disinfectants are also known as contact lens multi-purpose solutions when they are used for rinsing, cleaning, disinfection, storage and rewetting contact lenses. The five FDA/ISO specified test organisms are listed below: • Serratia marcescens, ATCC 13880 • Staphylococcus aureus, ATCC 6538 • Pseudomonas aeruginosa, ATCC 9027 • Candida albicans, ATCC 10231 • Fusarium solani, ATCC 36031
(§3) The specific test procedure for testing antimicrobial activity against the five FDA/ISO specified test organisms is as follows (C. albicans is provided as a specific example): Test samples are sterile-filtered through a 0.22 micron sterile filter into sterile plastic high density polyethylene bottles or plastic flasks. A 10-mL aliquot of test sample is aseptically transferred into a sterile polystyrene plastic test tube. Sterile saline (0.90 w/v % NaCl) with 0.05 w/v % Polysorbate 80 (SS+TWEEN) is transferred into a separate control tube. All samples and control are stored at 20-25° C. throughout the duration of the test.
(§4) Test cultures of Candida albicans, ATCC 10231 are prepared in the conventional manner. Candida albicans cultures are grown on agar slants from primary frozen, lyophilized or “Culti-loop®” cultures. Three mL of sterile 0.9% saline is used to gently dislodge culture growth from the agar surface. The resulting harvest is transferred to an appropriate screw cap test tube containing glass beads and vortexed for approximately one minute. The vortexed harvest is diluted as needed with sterile 0.9% saline to prepare the culture inoculum with a concentration of 1×10e8 CFU/mL. Fifty microliters of culture inoculum is added to 10.0 mL of each test sample and control, so that the final inoculum level is in the range of 1×10e5 to 1×10e6 CFU(colony forming units) per mL of Candida albicans, ATCC 10231. Each sample and control tube is vortexed briefly to disperse the inoculum. Contact time intervals for testing activity against Candida are typically 4 or 6 hours, to conform to the intended product label instructions for contact lens soak time.
(§5) Aerobic Plate Count Methods are performed in order to quantitate test samples for their levels of survivors. At appropriate assay times, 0.5 mL well-vortexed aliquots are removed from sample tubes and added to glass test tubes containing 4.5 mL Letheen Neutralizing Broth media (Berton, Dickinson and Company, Sparks, Md.). After a previously determined, validated neutralizing time period, these samples are diluted 10-fold through serial dilutions using glass test tubes containing 4.5 mL Letheen Neutralizing Broth media. Aliquots of 0.1 mL are removed from each dilution tube and spread-plate applied to agar plates containing Sabouraud Dextrose Agar (SAB)(Berton, Dickinson and Company, Sparks, Md.). 10^1 to 10^4 CFU/mL survivor levels are quantitated. […]

[2] = test system: Pseudomonas aeruginosa, ATCC 9027; experiment: Microbiology challenge test, log drop; assay type: cell-based
Description: as §1, §2, §3, §4, §5

[3] = test system: Candida albicans, ATCC 10231; experiment: Microbiology challenge test, log drop; assay type: cell-based
Description: as §1, §2, §3, §4, §5

[4] = test system: Fusarium solani, ATCC 36031; experiment: Microbiology challenge test, log drop; assay type: cell-based
Description: as §1, §2, §3, §4, §5

[5] = test system: Staphylococcus aureus, ATCC 6538; experiment: Microbiology challenge test, log drop; assay type: cell-based
Description: as §1, §2, §3, §4, §5

[6] = Contact lens uptake: content left in solution after shaking with lenses; assay type: physicochemical; conditions: Myristylamine with TPGS 20 fold; for remaining content left in solution, Acuvue / remaining content left in solution, Purevision: 15 ml solution, closed system shaken 6 days at room temperature; for remaining content left in solution, Acuvue: 2 Acuvue lenses; for remaining content left in solution, Purevision: 2 Purevision lenses; for remaining content left in solution, Without Lens: 15 ml system without lenses, shaken 6 days at room temperature
Description: The results in Table 9A show the remaining quaternary ammonium and tertiary amine content left in solution after a 15 ml-solution-2 lenses closed system has been shaken for 6 days at room temperature. […] The control which was run for this experiment, which includes the remaining ingredients in the solutions referenced in Table 9A are listed in Table 9B. As one of ordinary skill in the art would realize, the less quaternary ammonium or tertiary amine content remaining in solution after the shaking period, the higher the absorption by the lenses.

[7] = test system: five FDA/ISO specified test organisms; experiment: Antimicrobial activity against the five-microbial panel, FDA/ISO disinfection criteria; assay type: cell-based; conditions: result in words
Description: The following is the procedure by which various antimicrobial agents and solutions are tested for their ability to reduce microbial loads over short periods of time, typically 24 hours and less. The procedure is a basic microbiology challenge test, which involves the inoculation of test product aliquots with a known number of viable cells of several test organisms, and assay for the survivors at various time intervals. The results are used to calculate log drops at soak times and construct kill-curves (graphs of survivors versus time) if desired. Candida albicans, ATCC 10231, is one of five organisms specified per FDA and ISO/CLI tests for the testing of contact lens disinfectants (FDA Premarket Notification (510k) Guidance Document for Contact Lens Care Products, Appendix B, Apr. 1, 1997 and ISO/FDIS 14729: Ophthalmic optics-Contact lens care products-Microbiological requirements and test methods for products and regimens for hygienic management of contact lenses, January 2001). Contact lens disinfectants are also known as contact lens multi-purpose solutions when they are used for rinsing, cleaning, disinfection, storage and rewetting contact lenses. The five FDA/ISO specified test organisms are listed below: • Serratia marcescens, ATCC 13880 • Staphylococcus aureus, ATCC 6538 • Pseudomonas aeruginosa, ATCC 9027 • Candida albicans, ATCC 10231 • Fusarium solani, ATCC 36031 Candida albicans is often the most resistant of the five organisms to commonly used cationic antimicrobial agents in contact lens multi-purpose solutions. Thus, achievement of adequate antimicrobial activity against Candida is often the most difficult task to pass a particular disinfection efficacy standard. FDA and ISO guidelines specify two disinfection efficacy standards, indicated in the table below: Stand Alone Disinfectant (Primary) Criteria: [table] The specific test procedure for testing antimicrobial activity against the five FDA/ISO specified test organisms is as follows (C. albicans is provided as a specific example): Test samples are sterile-filtered through a 0.22 micron sterile filter into sterile plastic high density polyethylene bottles or plastic flasks. A 10-mL aliquot of test sample is aseptically transferred into a sterile polystyrene plastic test tube. Sterile saline (0.90 w/v % NaCl) with 0.05 w/v % Polysorbate 80 (SS+TWEEN) is transferred into a separate control tube. All samples and control are stored at 20-25° C. throughout the duration of the test.

[8] = Table 8B: Cetylamine 0.0001 % w/w with PHMB 0.00002, Pluronic F87 0.05, pH 7.7
[9] = Table 8B: Cetylamine 0.0001 % w/w, PHMB 0.00, Pluronic F87 0.05, pH 7.7
[10] = Table 8B: Cetylamine 0.000125 % w/w, PHMB 0.00, Pluronic F87 0.05, pH 7.7
[11] = Table 8B: Cetylamine 0.0003 % w/w, PHMB 0.00, Pluronic F87 0.05, pH 7.7
[12] = Cetylpyridinium Chloride 0.001 w/v %, TPGS 0, Tetronic 1307 0.05
[13] = Cetylpyridinium Chloride 0.001 w/v %, TPGS 0.025, Tetronic 1307 0.05
[14] = Table 2B: Dodecylamine 0.0003 % w/w, Tetronic 1307 0.05, pH 7.8
[15] = Table 2B: Dodecylamine 0.0005 % w/w, Tetronic 1307 0.05, pH 7.8

With CCCCCCCCCCCCCCCCN [Cetylamine] the “Log Drop” value [1, 8] was 4.18, the “Log Drop” value [1, 9] was 2.35 and the “Log Drop” value [1, 10] was 3.76. For the same molecule, the “Log Drop” value [1, 11] was 3.61, the “Log Drop” value [2, 8] was 4.43 and the “Log Drop” value [2, 9] was 4.49. For the same molecule, the “Log Drop” value [2, 10] was 3.95, the “Log Drop” value [2, 11] was 4.49 and the “Log Drop” value [3, 8] was 1.51. For the same molecule, the “Log Drop” value [3, 9] was 2.89, the “Log Drop” value [3, 10] was 1.97 and the “Log Drop” value [3, 11] was 2.89. The “Log Drop” value [4, 8] was 1.14, the “Log Drop” value [4, 9] was 1.3 and the “Log Drop” value [4, 10] was 2.76. The “Log Drop” value [4, 11] was 1.48, the “Log Drop” value [5, 8] was 4.81 and the “Log Drop” value [5, 9] was 4.18. The “Log Drop” value [5, 10] was 4.81 and the “Log Drop” value [5, 11] was 4.79.

In the case of CCCCCCCCCCCCCCCC[n+]1ccccc1 [Cetylpyridinium Chloride, reference compound], the “remaining content left in solution, Acuvue” value [6] is reported as 3.3 ppm, the “remaining content left in solution, Purevision” value [6] is reported as 1.3 ppm and the “remaining content left in solution, Without Lens” value [6] is reported as 42.7 ppm. For the same molecule, the “Log Drop” value [3, 12] was 4.41, the “Log Drop” value [3, 13] was 0.12 and the “Log Drop” value [4, 12] was greater than 4.08. The “Log Drop” value [4, 13] was 1.06.

In the case of CCCCCCCCCCCCCC(=O)NCCCN(C)C [Myristylamidopropyl-dimethylamine], the “remaining content left in solution, Acuvue” value [6] is reported as 18.2 ppm, the “remaining content left in solution, Purevision” value [6] is reported as 4.7 ppm and the “remaining content left in solution, Without Lens” value [6] is reported as 43.5 ppm.

For CCCCCCCCCCCCN [Dodecylamine, reference compound], the antimicrobial activity [7] was “very weak antimicrobial activity”, the antimicrobial activity ([7]; listed as dodecylamine) was “not qualified as a disinfectant for contact lens care” and the “remaining content left in solution, Acuvue” value [6] was 35.0 ppm. For the same molecule, the “remaining content left in solution, Purevision” value [6] was 14.1 ppm, the “remaining content left in solution, Without Lens” value [6] was 44.4 ppm and the Log Drop [1, 14] was 0.46. For the same molecule, the Log Drop [1, 15] was 0.46, the Log Drop [2, 14] was 1.4 and the Log Drop [2, 15] was 1.36. For the same molecule, the Log Drop [3, 14] was 0.91, the Log Drop [3, 15] was 1.77 and the Log Drop [4, 14] was 0.09. For the same molecule, the Log Drop [4, 15] was 0.16, the Log Drop [5, 14] was 0.34 and the Log Drop [5, 15] was 0.12.
